According to patent publication US20020142996A1, “Use of bisphosphonic acids for treating angiogenesis” (priority 1999, published 2002):
Like-named read-outs stand apart in the source and are kept apart here. Values belong to the compound of their own block, whether it stands above or below them.

Tests used:
HUVEC = experiment: Endothelial cell migration assay
[1] = system: Human umbilical vein endothelial cells (HUVEC); experiment: cells
[2] = system: human tumour cell line A431 (epithelial carcinoma); experiment: Tumour cell proliferation assay (methylene blue)
[3] = system: bFGF induced angiogenesis; experiment: Growth factor impregnated subcutaneous chamber implant angiogenesis model in mice (bFGF); format: in vivo; conditions: 1, 10 and 100 μg/kg/day s.c., chambers removed 5 days after implantation
Description: (§1) Effect of Zoledronic Acid on Angiogenesis Induced by Growth Factor Impregnated, Subcutaneous Implants in Mice
(§2) Female mice (Tiflbm:MAG ) weighing 17 to 20 g were used. They were identified via ear markings and kept in groups (6 animals per cage) under normal conditions and observed daily. Six mice were used per treatment group in each experiment. All experiments were performed at least twice.
(§3) Porous tissue chambers made of perfluoro-alkoxy-Teflon (Teflon®-PFA, 21 mm×8 mm diameter, 550 μl volume) and perforated with 80 regularly spaced 0.8 mm holes were used. Both ends were sealed with removable caps of the same material. Four to six chambers were inserted in a silicon tube (12 mm diameter). […]
(§4) Five days after implantation, animals were anaesthetized (3% isoflurane) and sacrificed using an overdose of pentobarbitone (210 mg/kg i.p., Vetanarcol, Veterinaria AG, Zürich, Switzerland). Chambers were then taken out of the animal, the vascularized fibrous tissue that had formed around each implant was carefully removed, weighed and the total amount of blood was quantified by colorimetric determination of the haemoglobin concentration.
(§5) After addition of 2 ml of distilled water, tissue samples were homogenised for 1 min at 24000 rpm (Ultra Turrax T25). […] The absorbance at 540 mn (Uvikon 810 P) is proportional to the haemoglobin concentration. […]

[4] = system: VEGF induced angiogenesis; experiment: Growth factor impregnated subcutaneous chamber implant angiogenesis model in mice (VEGF); format: in vivo; conditions: highest dose tested, 100 μg/kg/day s.c.
Description: as §1, §2, §3, §4, §5

[5] = system: Human umbilical vein endothelial cells (HUVEC); conditions: 30 μM

IC50 ([2]; Homo sapiens, A-431, 72 h, read-out: IC50, proliferation of A431): 1.35 µM
Compound: O=P(O)(O)C(O)(Cn1ccnc1)P(=O)(O)O [Zoledronate, 1-hydroxy-2-(imidazol-1-yl)ethane-1,1-diphosphonic acid]
effect on HUVEC migration (HUVEC; 30 μM): completely inhibited
effect on HUVEC migration (HUVEC; concentrations of up to 10 μM, basal medium, serum or VEGF): stimulated HUVEC migration
IC50 ([1]; read-out: IC50, VEGF-induced HUVEC proliferation): 6.9 ± 0.4 µM
IC50 ([1]; read-out: IC50, bFGF-induced HUVEC proliferation): 4.2 ± 0.4 µM
IC50 ([1]; read-out: IC50, serum-induced HUVEC proliferation): 4.1 ± 0.6 µM

Compound: O=P(O)(O)C(O)(Cn1ccnc1)P(=O)(O)O [Zoledronic acid, 1-hydroxy-2-(imidazol-1-yl)ethane-1,1-diphosphonic acid]
approximate IC50, inhibition of bFGF-induced angiogenic response measured by blood content ([3]; blood content): ~3.1 µg/kg
approximate IC50, inhibition of bFGF-induced angiogenic response measured by weight ([3]; tissue weight): ~2.5 µg/kg
inhibition of the VEGF-induced increase in blood content [4]: significant inhibition
inhibition of the VEGF-induced increase in weight [4]: not in weight

Compound: O=C(O)CN(CCN(CC(=O)O)CC(=O)O)CC(=O)O [EDTA]
inhibition of HUVEC proliferation induced by FCS ([5]; FCS): 23.7%
inhibition of HUVEC proliferation induced by VEGF ([5]; VEGF): 55.6%
inhibition of HUVEC proliferation induced by bFGF ([5]; bFGF): 49.5%
effect on HUVEC migration (HUVEC): no consistent effects
inhibition of A431 proliferation ([2]; 30 μM): 8.8%
effect on A431 proliferation in the tested dose range ([2]; tested dose range): no significant effect
